Measured values: US20240109887A1 (Viva Star Biosciences (Suzhou) Co., Ltd., priority 2021, published 2024)

Experiments:
[1] = molecular target: T1, KRAS-WT/SOS1 (Homo sapiens, UniProt Q07889); assay: biochemical
T1 sequence (Q07889 1-1333): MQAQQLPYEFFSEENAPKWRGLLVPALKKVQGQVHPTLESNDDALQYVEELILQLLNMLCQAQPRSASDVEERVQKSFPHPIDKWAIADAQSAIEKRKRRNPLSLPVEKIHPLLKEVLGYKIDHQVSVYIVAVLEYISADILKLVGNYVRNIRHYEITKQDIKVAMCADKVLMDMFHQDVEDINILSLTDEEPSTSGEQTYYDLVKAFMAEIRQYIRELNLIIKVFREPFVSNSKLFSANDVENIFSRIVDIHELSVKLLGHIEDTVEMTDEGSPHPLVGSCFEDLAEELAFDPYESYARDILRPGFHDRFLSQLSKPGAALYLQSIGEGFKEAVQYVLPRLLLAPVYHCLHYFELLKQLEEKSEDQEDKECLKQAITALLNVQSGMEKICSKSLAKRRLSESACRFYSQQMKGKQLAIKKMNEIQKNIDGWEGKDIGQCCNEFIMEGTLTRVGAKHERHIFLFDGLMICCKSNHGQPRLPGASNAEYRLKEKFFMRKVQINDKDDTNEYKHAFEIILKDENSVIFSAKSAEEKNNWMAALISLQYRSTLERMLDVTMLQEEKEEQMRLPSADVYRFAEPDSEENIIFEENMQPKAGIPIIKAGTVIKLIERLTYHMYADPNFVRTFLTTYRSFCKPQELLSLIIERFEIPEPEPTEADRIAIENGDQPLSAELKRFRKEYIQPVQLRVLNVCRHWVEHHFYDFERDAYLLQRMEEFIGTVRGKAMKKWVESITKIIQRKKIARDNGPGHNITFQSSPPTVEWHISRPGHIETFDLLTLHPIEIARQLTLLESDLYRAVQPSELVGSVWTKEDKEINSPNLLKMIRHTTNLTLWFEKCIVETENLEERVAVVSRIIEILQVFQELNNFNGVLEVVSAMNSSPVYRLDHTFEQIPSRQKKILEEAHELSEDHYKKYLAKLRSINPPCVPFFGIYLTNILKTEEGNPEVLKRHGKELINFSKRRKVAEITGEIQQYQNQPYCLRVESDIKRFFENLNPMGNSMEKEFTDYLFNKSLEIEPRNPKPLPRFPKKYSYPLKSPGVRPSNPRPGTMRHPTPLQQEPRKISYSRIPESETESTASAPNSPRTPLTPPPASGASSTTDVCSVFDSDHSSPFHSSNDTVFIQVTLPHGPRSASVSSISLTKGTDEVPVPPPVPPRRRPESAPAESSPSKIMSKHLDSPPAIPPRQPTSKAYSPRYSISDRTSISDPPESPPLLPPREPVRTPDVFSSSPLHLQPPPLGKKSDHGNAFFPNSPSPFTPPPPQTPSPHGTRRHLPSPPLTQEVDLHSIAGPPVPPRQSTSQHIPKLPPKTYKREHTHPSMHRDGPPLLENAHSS

[2] = molecular target: T2, KRAS G12D/SOS1 (Homo sapiens, UniProt Q07889); assay: biochemical
T2 sequence (Q07889 1-1333): T1 sequence (Q07889 1-1333)

SMILES | IC50 [1] | IC50 [2]
C[C@@H](NC(=O)c1cn(C2(C)CC2)c(=O)c2c[nH]nc12)c1cccc2c1CCC2(F)F [Example 4, (R)-N-(1-(1,1-difluoro-2,3-dihydro-1H-inden-4-yl)ethyl)-5-(1-methylcyclopropyl)-4-oxo-4,5-dihydro-2H-pyrazolo[4,3-c]pyridine-7-carboxamide] | < 0.1 µM | < 0.1 µM
C[C@@H](NC(=O)c1cn(C2(C)CC2)c(=O)c2c[nH]nc12)c1cccc(C(F)(F)CO)c1 [Example 5, (R)-N-(1-(3-(1,1-difluoro-2-hydroxyethyl)phenyl)ethyl)-5-(1-methylcyclopropyl)-4-oxo-4,5-dihydro-2H-pyrazolo[4,3-c]pyridine-7-carboxamide] | < 0.1 µM | < 0.1 µM
Cc1c([C@@H](C)NC(=O)c2cn(C3(C)CC3)c(=O)c3cn[nH]c23)cccc1C(F)(F)F [Example 6, (R)-N-(1-(2-methyl-3-(trifluoromethyl)phenyl)ethyl)-5-(1-methylcyclopropyl)-4-oxo-4,5-dihydro-1H-pyrazolo[4,3-c]pyridine-7-carboxamide] | < 0.1 µM | 0.1 to 0.5 µM
C[C@@H](NC(=O)c1cn(C2(C)CC2)c(=O)c2cn[nH]c12)c1cccc(C(C)(F)F)c1F [Example 7, (R)-N-(1-(3-(1,1-difluoroethyl)-2-fluorophenyl)ethyl)-5-(1-methylcyclopropyl)-4-oxo-4,5-dihydro-1H-pyrazolo[4,3-c]pyridine-7-carboxamide] | < 0.1 µM | 0.1 to 0.5 µM
CNCc1ccccc1-c1ccc([C@@H](C)NC(=O)c2cn(C3(C)CC3)c(=O)c3cn[nH]c23)s1 [Example 9, (R)-N-(1-(5-(2-((methylamino)methyl)phenyl)thiophen-2-yl)ethyl)-5-(1-methylcyclopropyl)-4-oxo-4,5-dihydro-1H-pyrazolo[4,3-c]pyridine-7-carboxamide] | < 0.1 µM | < 0.1 µM
CC(=O)N1CCC(n2cc(C(=O)N[C@H](C)c3cccc4c3CCC4(F)F)c3n[nH]cc3c2=O)CC1 [Example 10, (R)-5-(1-acetylpiperidin-4-yl)-N-(1-(1,1-difluoro-2,3-dihydro-1H-inden-4-yl)ethyl)-4-oxo-4,5-dihydro-2H-pyrazolo[4,3-c]pyridine-7-carboxamide] | < 0.1 µM | < 0.1 µM
C[C@@H](NC(=O)c1cn(C2CC(F)(F)C2)c(=O)c2cn[nH]c12)c1cccc2c1CCC2(F)F [Example 13, (R)—N-(1-(1,1-difluoro-2,3-dihydro-1H-inden-4-yl)ethyl)-5-(3,3-difluorocyclobutyl)-4-oxo-4,5-dihydro-1H-pyrazolo[4,3-c]pyridine-7-carboxamide] | < 0.1 µM | < 0.1 µM
C[C@@H](NC(=O)c1cn(C2CC(F)(F)C2)c(=O)c2cn[nH]c12)c1cccc(C(F)(F)F)c1 [Example 14, (R)-5-(3,3-difluorocyclobutyl)-4-oxo-N-(1-(3-(trifluoromethyl)phenyl)ethyl)-4,5-dihydro-1H-pyrazolo[4,3-c]pyridine-7-carboxamide] | 0.1 to 0.5 µM | 0.1 to 0.5 µM
CNCc1ccccc1-c1csc([C@@H](C)NC(=O)c2cn(C3CC(F)(F)C3)c(=O)c3cn[nH]c23)c1 [Example 15, 5-(3,3-difluorocyclobutyl)-N-[(1R)-1-(4-{2-[(methylamino)methyl]phenyl}thiophen-2-yl)ethyl]-4-oxo-1H,4H,5H-pyrazolo[4,3-c]pyridine-7-carboxamide] | < 0.1 µM | < 0.1 µM
COc1c(N2CCOCC2)cc(C(=O)N[C@H](C)c2cccc3c2CCC3(F)F)c2n[nH]cc12 [Example 18, N-[(1R)-1-(1,1-difluoro-2,3-dihydro-1H-inden-4-yl)ethyl]-4-methoxy-5-(morpholin-4-yl)-2H-indazole-7-carboxamide] | < 0.1 µM | < 0.1 µM
COc1c(CN(C)C)cc(C(=O)N[C@H](C)c2cccc3c2CCC3(F)F)c2n[nH]cc12 [Example 19, N-[(1R)-1-(1,1-difluoro-2,3-dihydro-1H-inden-4-yl)ethyl]-5-[(dimethylamino)methyl]-4-methoxy-2H-indazole-7-carboxamide] | 0.1 to 0.5 µM | 0.1 to 0.5 µM
COc1c(CN(C)C)cc(C(=O)N[C@H](C)c2cccc(C(F)(F)CO)c2)c2n[nH]cc12 [Example 20, N-[(1R)-1-[3-(1,1-difluoro-2-hydroxyethyl)phenyl]ethyl]-5-[(dimethylamino)methyl]-4-methoxy-2H-indazole-7-carboxamide] | 0.1 to 0.5 µM | 0.1 to 0.5 µM
Cc1c[nH]c2c(C(=O)N[C@H](C)c3cccc4c3CCC4(F)F)cn(C3(C)CC3)c(=O)c12 [Example 21, (R)—N-(1-(1,1-difluoro-2,3-dihydro-1H-inden-4-yl)ethyl)-3-methyl-5-(1-methylcyclopropyl)-4-oxo-4,5-dihydro-1H-pyrrolo[3,2-c]pyridine-7-carboxamide] | < 0.1 µM | 0.1 to 0.5 µM
COc1c(-c2cnc[nH]2)cc(C(=O)N[C@H](C)c2cccc3c2CCC3(F)F)c2n[nH]cc12 [Example 22, N-[(1R)-1-(1,1-difluoro-2,3-dihydro-1H-inden-4-yl)ethyl]-5-(1H-imidazol-5-yl)-4-methoxy-2H-indazole-7-carboxamide] | 0.1 to 0.5 µM | 0.1 to 0.5 µM
COc1c(-c2cnc[nH]2)cc(C(=O)N[C@H](C)c2cccc(C(F)(F)CO)c2)c2n[nH]cc12 [Example 23, N-[(1R)-1-[3-(1,1-difluoro-2-hydroxyethyl)phenyl]ethyl]-5-(1H-imidazol-5-yl)-4-methoxy-2H-indazole-7-carboxamide] | 0.1 to 0.5 µM | 0.1 to 0.5 µM
COc1c(C(C)N)cc(C(=O)N[C@H](C)c2cccc3c2CCC3(F)F)c2n[nH]cc12 (stereo partly drawn) [Example 24, 5-(1-aminoethyl)-N—((R)-1-(1,1-difluoro-2,3-dihydro-1H-inden-4-yl)ethyl)-4-methoxy-2H-indazole-7-carboxamide] | 0.1 to 0.5 µM | 0.1 to 0.5 µM
COc1c(O[C@H]2CCOC2)cc(C(=O)N[C@H](C)c2cccc(C(F)(F)F)c2)c2n[nH]cc12 [Example 27, 4-methoxy-5-(((S)-tetrahydrofuran-3-yl)oxy)-N—((R)-1-(3-(trifluoromethyl)phenyl)ethyl)-2H-indazole-7-carboxamide] | 0.1 to 0.5 µM | 0.1 to 0.5 µM
COc1c(O[C@H]2CCOC2)cc(C(=O)N[C@H](C)c2cc(N)cc(C(F)(F)F)c2)c2n[nH]cc12 [Example 28, N-((R)-1-(3-amino-5-(trifluoromethyl)phenyl)ethyl)-4-methoxy-5-(((S)-tetrahydrofuran-3-yl)oxy)-2H-indazole-7-carboxamide] | 0.1 to 0.5 µM | 0.1 to 0.5 µM
COc1c(O[C@H]2CCOC2)cc(C(=O)N[C@H](C)c2cccc3c2CCC3(F)F)c2n[nH]cc12 [Example 29, N-((R)-1-(1,1-difluoro-2,3-dihydro-1H-inden-4-yl)ethyl)-4-methoxy-5-(((S)-tetrahydrofuran-3-yl)oxy)-2H-indazole-7-carboxamide] | < 0.1 µM | 0.1 to 0.5 µM
COc1c(O[C@H]2CCOC2)cc(C(=O)N[C@H](C)c2cccc(C(F)(F)CO)c2)c2n[nH]cc12 [Example 30, N-((R)-1-(3-(1,1-difluoro-2-hydroxyethyl)phenyl)ethyl)-4-methoxy-5-(((S)-tetrahydrofuran-3-yl)oxy)-2H-indazole-7-carboxamide] | 0.1 to 0.5 µM | 0.1 to 0.5 µM
COc1c(N2CCN(C)CC2)cc(C(=O)N[C@H](C)c2cccc(C(F)(F)CO)c2)c2[nH]ncc12 [Example 32, N-[(1R)-1-[3-(1,1-difluoro-2-hydroxyethyl)phenyl]ethyl]-4-methoxy-5-(4-methylpiperazin-1-yl)-1H-indazole-7-carboxamide] | < 0.1 µM | < 0.1 µM
COc1c(N2CCNCC2)cc(C(=O)N[C@H](C)c2cccc(C(F)(F)CO)c2)c2[nH]ncc12 [Example 33] | < 0.1 µM | < 0.1 µM
COc1c(C2CCN(C)CC2)cc(C(=O)N[C@H](C)c2cccc(C(F)(F)CO)c2)c2[nH]ncc12 [Example 34, N-[(1R)-1-[3-(1,1-difluoro-2-hydroxyethyl)phenyl]ethyl]-4-methoxy-5-(1-methylpiperidin-4-yl)-1H-indazole-7-carboxamide] | < 0.1 µM | < 0.1 µM
